Source: the NIST ThermoML archive (doi:10.1021/je060271a)
± gives the expanded uncertainty stated by the source.

Conditions: 343.16 K, Liquid, Vibrating tube method

Work on `CCCCCC(=O)OCC(COC(=O)CCCCC)(COC(=O)CCCCC)COC(=O)CCCCC` [pentaerythritol tetrahexanoate] yielded a mass density (27885 kPa) of 976.9 ± 1.2 kg/m3, a mass density (27922 kPa) of 976.9 ± 1.2 kg/m3 and a mass density (27953 kPa) of 976.9 ± 1.2 kg/m3. The mass density (27990 kPa) was 976.9 ± 1.2 kg/m3, the mass density (28022 kPa) was 977 ± 1.2 kg/m3 and the mass density (28053 kPa) was 977 ± 1.2 kg/m3. It also gave a mass density (28081 kPa) of 976.9 ± 1.2 kg/m3, a mass density (28111 kPa) of 977 ± 1.2 kg/m3 and a mass density (28135 kPa) of 977 ± 1.2 kg/m3. It also gave a mass density (28160 kPa) of 977.1 ± 1.2 kg/m3, a mass density (28189 kPa) of 977.2 ± 1.2 kg/m3 and a mass density (28213 kPa) of 977 ± 1.2 kg/m3. For the same compound, the mass density (28238 kPa) was 977.1 ± 1.2 kg/m3, the mass density (28267 kPa) was 977 ± 1.2 kg/m3 and the mass density (28292 kPa) was 977.1 ± 1.2 kg/m3. The mass density (28613 kPa) was 977.3 ± 1.2 kg/m3, the mass density (28638 kPa) was 977.3 ± 1.2 kg/m3 and the mass density (28664 kPa) was 977.3 ± 1.2 kg/m3. It also gave a mass density (28694 kPa) of 977.4 ± 1.2 kg/m3, a mass density (28719 kPa) of 977.5 ± 1.2 kg/m3 and a mass density (28745 kPa) of 977.4 ± 1.2 kg/m3. The mass density (28777 kPa) was 977.5 ± 1.2 kg/m3, the mass density (28799 kPa) was 977.4 ± 1.2 kg/m3 and the mass density (28830 kPa) was 977.4 ± 1.2 kg/m3. For the same compound, the mass density (28855 kPa) was 977.4 ± 1.2 kg/m3, the mass density (28886 kPa) was 977.6 ± 1.2 kg/m3 and the mass density (28912 kPa) was 977.6 ± 1.2 kg/m3. It also gave a mass density (28938 kPa) of 977.6 ± 1.2 kg/m3, a mass density (28969 kPa) of 977.3 ± 1.2 kg/m3 and a mass density (28995 kPa) of 977.6 ± 1.2 kg/m3. It also gave a mass density (29021 kPa) of 977.5 ± 1.2 kg/m3, a mass density (29048 kPa) of 977.7 ± 1.2 kg/m3 and a mass density (29360 kPa) of 977.8 ± 1.2 kg/m3. The mass density (29386 kPa) was 977.8 ± 1.2 kg/m3, the mass density (29419 kPa) was 977.8 ± 1.2 kg/m3 and the mass density (29533 kPa) was 977.9 ± 1.2 kg/m3. For the same compound, the mass density (29560 kPa) was 977.9 ± 1.2 kg/m3, the mass density (29588 kPa) was 978 ± 1.2 kg/m3 and the mass density (29620 kPa) was 977.8 ± 1.2 kg/m3. It also gave a mass density (29648 kPa) of 977.9 ± 1.2 kg/m3, a mass density (29680 kPa) of 978 ± 1.2 kg/m3 and a mass density (29708 kPa) of 978 ± 1.2 kg/m3. For the same compound, the mass density (29735 kPa) was 978 ± 1.2 kg/m3, the mass density (29824 kPa) was 978 ± 1.2 kg/m3 and the mass density (30097 kPa) was 978.2 ± 1.2 kg/m3. The mass density (30127 kPa) was 978.2 ± 1.2 kg/m3, the mass density (30157 kPa) was 978.2 ± 1.2 kg/m3 and the mass density (30193 kPa) was 978.4 ± 1.2 kg/m3. The mass density (30518 kPa) was 978.6 ± 1.2 kg/m3, the mass density (30540 kPa) was 978.4 ± 1.2 kg/m3 and the mass density (30566 kPa) was 978.7 ± 1.2 kg/m3. It also gave a mass density (30588 kPa) of 978.5 ± 1.2 kg/m3, a mass density (30610 kPa) of 978.5 ± 1.2 kg/m3 and a mass density (30637 kPa) of 978.6 ± 1.2 kg/m3. The mass density (30659 kPa) was 978.6 ± 1.2 kg/m3, the mass density (30682 kPa) was 978.8 ± 1.2 kg/m3 and the mass density (30704 kPa) was 978.7 ± 1.2 kg/m3. For the same compound, the mass density (30731 kPa) was 978.6 ± 1.2 kg/m3, the mass density (30753 kPa) was 978.7 ± 1.2 kg/m3 and the mass density (30776 kPa) was 978.7 ± 1.2 kg/m3. It also gave a mass density (30798 kPa) of 978.7 ± 1.2 kg/m3, a mass density (30825 kPa) of 978.7 ± 1.2 kg/m3 and a mass density (30848 kPa) of 978.5 ± 1.2 kg/m3. It also gave a mass density (30871 kPa) of 978.7 ± 1.2 kg/m3, a mass density (30894 kPa) of 979 ± 1.2 kg/m3 and a mass density (30917 kPa) of 978.8 ± 1.2 kg/m3. It also gave a mass density (30944 kPa) of 978.8 ± 1.2 kg/m3, a mass density (30966 kPa) of 978.8 ± 1.2 kg/m3 and a mass density (30993 kPa) of 978.8 ± 1.2 kg/m3. It also gave a mass density (31016 kPa) of 978.8 ± 1.2 kg/m3, a mass density (31038 kPa) of 978.8 ± 1.2 kg/m3 and a mass density (31065 kPa) of 978.9 ± 1.2 kg/m3. It also gave a mass density (31088 kPa) of 978.8 ± 1.2 kg/m3, a mass density (31111 kPa) of 978.8 ± 1.2 kg/m3 and a mass density (31134 kPa) of 978.8 ± 1.2 kg/m3. It also gave a mass density (31161 kPa) of 978.9 ± 1.2 kg/m3, a mass density (31185 kPa) of 979 ± 1.2 kg/m3 and a mass density (31208 kPa) of 978.9 ± 1.2 kg/m3. It also gave a mass density (31236 kPa) of 978.9 ± 1.2 kg/m3, a mass density (31259 kPa) of 979 ± 1.2 kg/m3 and a mass density (31282 kPa) of 979 ± 1.2 kg/m3. For the same compound, the mass density (31304 kPa) was 979.1 ± 1.2 kg/m3, the mass density (31332 kPa) was 979 ± 1.2 kg/m3 and the mass density (31355 kPa) was 979 ± 1.2 kg/m3. It also gave a mass density (31382 kPa) of 979.1 ± 1.2 kg/m3, a mass density (31405 kPa) of 979 ± 1.2 kg/m3 and a mass density (31429 kPa) of 979.1 ± 1.2 kg/m3. It also gave a mass density (31480 kPa) of 979.2 ± 1.2 kg/m3, a mass density (31504 kPa) of 979.1 ± 1.2 kg/m3 and a mass density (31527 kPa) of 979.2 ± 1.2 kg/m3. The mass density (31555 kPa) was 979.3 ± 1.2 kg/m3, the mass density (31578 kPa) was 979.3 ± 1.2 kg/m3 and the mass density (31606 kPa) was 979.3 ± 1.2 kg/m3. The mass density (31630 kPa) was 979.2 ± 1.2 kg/m3, the mass density (31654 kPa) was 979.2 ± 1.2 kg/m3 and the mass density (31682 kPa) was 979.3 ± 1.2 kg/m3. It also gave a mass density (31706 kPa) of 979.3 ± 1.2 kg/m3, a mass density (31729 kPa) of 979.3 ± 1.2 kg/m3 and a mass density (31758 kPa) of 979.3 ± 1.2 kg/m3. For the same compound, the mass density (31782 kPa) was 979.3 ± 1.2 kg/m3, the mass density (31806 kPa) was 979.3 ± 1.2 kg/m3 and the mass density (31830 kPa) was 979.3 ± 1.2 kg/m3. For the same compound, the mass density (31859 kPa) was 979.3 ± 1.2 kg/m3, the mass density (31883 kPa) was 979.4 ± 1.2 kg/m3 and the mass density (31912 kPa) was 979.4 ± 1.2 kg/m3. For the same compound, the mass density (31936 kPa) was 979.3 ± 1.2 kg/m3, the mass density (31960 kPa) was 979.3 ± 1.2 kg/m3 and the mass density (31984 kPa) was 979.4 ± 1.2 kg/m3. For the same compound, the mass density (32013 kPa) was 979.5 ± 1.2 kg/m3, the mass density (32037 kPa) was 979.6 ± 1.2 kg/m3 and the mass density (32061 kPa) was 979.4 ± 1.2 kg/m3. For the same compound, the mass density (32090 kPa) was 979.4 ± 1.2 kg/m3, the mass density (32114 kPa) was 979.5 ± 1.2 kg/m3 and the mass density (32144 kPa) was 979.6 ± 1.2 kg/m3. It also gave a mass density (32169 kPa) of 979.6 ± 1.2 kg/m3, a mass density (32193 kPa) of 979.4 ± 2 kg/m3 and a mass density (32217 kPa) of 979.6 ± 1.2 kg/m3. The mass density (32247 kPa) was 979.8 ± 1.2 kg/m3, the mass density (32272 kPa) was 979.6 ± 1.2 kg/m3 and the mass density (32296 kPa) was 979.7 ± 1.2 kg/m3. The mass density (32326 kPa) was 979.6 ± 1.2 kg/m3, the mass density (32351 kPa) was 979.7 ± 1.2 kg/m3 and the mass density (32381 kPa) was 979.7 ± 1.2 kg/m3. It also gave a mass density (32406 kPa) of 979.6 ± 1.2 kg/m3, a mass density (32431 kPa) of 979.6 ± 1.2 kg/m3 and a mass density (32456 kPa) of 979.8 ± 1.2 kg/m3. The mass density (32486 kPa) was 979.8 ± 1.2 kg/m3, the mass density (32511 kPa) was 979.7 ± 1.2 kg/m3 and the mass density (32536 kPa) was 979.7 ± 1.2 kg/m3. For the same compound, the mass density (32562 kPa) was 979.8 ± 1.2 kg/m3, the mass density (32592 kPa) was 979.9 ± 1.2 kg/m3 and the mass density (32617 kPa) was 979.8 ± 1.2 kg/m3. It also gave a mass density (32647 kPa) of 979.9 ± 1.2 kg/m3, a mass density (32672 kPa) of 979.8 ± 1.2 kg/m3 and a mass density (32698 kPa) of 979.8 ± 1.2 kg/m3. It also gave a mass density (32724 kPa) of 980 ± 1.2 kg/m3, a mass density (32755 kPa) of 979.9 ± 1.2 kg/m3 and a mass density (32780 kPa) of 980 ± 1.2 kg/m3. It also gave a mass density (32806 kPa) of 979.9 ± 1.2 kg/m3, a mass density (32837 kPa) of 979.9 ± 1.2 kg/m3 and a mass density (32863 kPa) of 980 ± 1.2 kg/m3. The mass density (32889 kPa) was 980 ± 1.2 kg/m3, the mass density (32920 kPa) was 979.8 ± 1.2 kg/m3 and the mass density (32945 kPa) was 980 ± 1.2 kg/m3. For the same compound, the mass density (32971 kPa) was 980 ± 1.2 kg/m3.
